Laboratory results as given in the OligoGym collection.
Where “and” joins values, the source holds several entries; their conditions need not be identical. Equal entries are not always repeated. These antisense oligonucleotides have a phosphorothioate backbone; sugars and methylation of C are not fully specified.

Target: ERBB2
Conditions: ASO
Note: test concentration or dose not given here.

Sequence	remaining target (mRNA or protein) (fraction of control)
ACCGCAGAGATGATGGAC	0.98
ACTCTGGTGGGTGAACCG	0.86
CACTGGTAACTGCCCTCA	0.54
CAGGAAGGACAGGCTGGC	0.94
CAGGGTCAGCGAGTAGGC	0.89
CCACAAAGACTCCCCAGT	0.44
CCAGCAGTGAGCGGTAGA	0.41
CCATCAGTCTCAGAGGGC	0.3
CCCTTGTAGACTGTGCCA	0.56
CCGCACATCCTCCAGGTA	0.64
CCGCCACTCCTGGTAGAT	≥ 1
CCTGCCTCACTTGGTTGT	0.64
CCTTTCCAGAGTGGCACC	0.75
CGAAGGCTGGGCTGAAGG	0.73
CTGGTAGAGGTGGCGGAG	≥ 1
CTGGTTCACACTGGCACG	0.4
GACCACGACCAGCAGAAT	0.76
GACCATAGCACACTCGGG	0.57
GCACCACCTGGCAGCCCT	0.73

Sequence	remaining target (mRNA or protein) (fraction of control)
GCACGAAGCAGAGGTGGG	0.47
GCACTTCTCACACCGCTG	0.51
GCAGCCGAGCCAGCCCGA	0.61
GCAGCGGGAGCCCTTACA	0.83
GCCAGGGCATAGTTGTCC	0.81
GCTGGTTGTTCTTGTGGA	0.73
GGCAGTGTTGGAGGCTGG	0.57
GGGAACTCAAGCAGGAAG	0.68
GGGTGGCACGGCAAACAG	0.81
GGGTGGTATTGTTCAGCG	0.94
GGTCTCGGGACTGGCAGG	0.68
GTGGATGTCAGGCAGATG	0.86
GTGGTTGAAGTGGAGGCA	0.98
GTTGGGCATCGCTCCGCT	0.59
TCAGGTTTCACACCGCTG	0.66
TCGGAGCCAGCCCCTTCG	0.53
TGATGCCAGCAGAAGTCA	0.94
TTCTGCTGCCGTCGCTTG	0.75
TTGACACACTGGGTGGGC	0.61

Target: SELE
Conditions: ASO

Sequence	remaining target (mRNA or protein) (fraction of control)
AATCATGACTTCAAGAGTTCT	0.78 and 0.53
ACAGGATCTCTCAGGTGGGT	0.2
ACCACACTGGTATTTCACAC	0.67
ACCTCTGCTGTTCTGATCCT	0.17
ACGTTTGGCCTCATGGAAGT	0.35
CAATCATGACTTCAAGAGTTC	0.77
CACAATCCTTAAGAACTCTTT	0.31
CAGCCAAGAACAGCT	0.5
CAGCCAAGAACAGCTGG	0.62
CCAAAGTGAGAGCTGAGAGA	0.36
CCAATCATGACTTCAAGAGTT	0.32
CCCAAAGGTTTAGGCTTG	0.61
CGTTCTGCACTTACCGTTTTG	0.52
CTGATTCAAGGCTTTGGCAG	0.55
CTGCTGCCTCTGTCTCAGGT	0.07
CTGTGAAGCAATCATGAC	0.96
CTTTCCTGGGGAGATAAA	0.96
GAAATACTTTCCTCCGTTTTG	≥ 1

Sequence	remaining target (mRNA or protein) (fraction of control)
GAAATACTTTCCTGGGGAGAT	0.81
GAAGTCAGCCAAGAACAGCT	0.5
GACAATATACAAACCTTCCAT	0.65
GACTTCAAGAGTTCT	0.82
GAGTTCTTTTCACCC	0.63
GATGTGAAGTCAGCCAA	0.51
GCATGTCACAGCTGTAACAAA	0.5
GGAATGCAAAGCACATCCAT	0.71
GGCTTGAAATACTTTCCT	0.84
GGGCCAGAGACCCGAGGAGA	0.46
GGGGAGATAAAACACAAAATG	0.79
GTATGGAAGATTATAATATAT	0.59
GTTCACAACTGAAAAAGAAAC	0.51
GTTTAAGGCAGCATCCTAAGA	0.38
TATAGGAGTTTTGATGTGAA	0.74
TCACCCAAAGGTTTAGGCTTG	0.1
TCCTCTCTTCCAGAGCACCC	≥ 1
TGAAGCAATCATGACTTCAAG	≥ 1 and 0.51

Target: DUSP9
Conditions: ASO

Sequence	remaining target (mRNA or protein) (fraction of control)
CCAGGCAGGAGCGCGCGCAC	0.62
CCCAGGGCCGGGACCTGGGC	0.98
CCCATGAAGTTGAAGTTGGG	0.44
CCGGGCACTGCCCAGATAGA	0.62
CCTCCATGGGCGATCGGCTC	0.7
CGAAGAAGTTTGGGAGGTTG	0.3
CGAGCACCCCGCAGTTCTGG	0.94
CGAGCCCTCCTGCCCTCCCC	0.65
CGAGCGGCCCAGACCCTCCA	≥ 1
CGGCCCAGACCCTCCATGGG	0.57
CGTCGCGGCCGGGAAGTTTC	0.95
CTCATGGAGTCGCGGTCAGC	0.86
CTCCTGCGAGTGGCGCTCCT	≥ 1
GACAGAAATGAATGACTGTG	0.14
GACCCCATCTCCTCCGGCGG	0.23
GCCACGCTCAGCGCCCCACC	0.94
GCCCAGACCCTCCATGGGCG	0.92
GGGCCCCGCAGCAGCAAAAG	0.35
GGGCGCTCCGCTCTGCTCGG	0.8
GTGGCACACACCCTTCCTGA	≥ 1
TCCATGGGCGATCGGCTCCC	0.74
TGACAACACCAGTGATGGCA	0.52
TGGAGCTTCTGCATGAGGTA	0.75
TGGGCAGGGACACCCGTGGG	0.79
TGGGCGATCGGCTCCCTACA	0.91
